We go through three molecules from US20240350521A1, “COMPOSITIONS AND METHODS FOR PREVENTING OR TREATING PRECOCIOUS PUBERTY” (TAIPEI MEDICAL UNIVERSITY, priority 2023, published 2024).

Data set [1] concerns female neonate Sprague-Dawley rats. Kind of data set: Body weight, reproductive organ coefficient weights, routine laboratory safety tests and TyG index in rats. Format: in vivo. On the procedure:
(§1) Such rats were divided into Control, Danazol, MAG (monoammonium glycyrrhizinate), Danazol+Low-MAG (100 μg/kg/day), Danazol+Medium-MAG (200 μg/kg/day), and Danazol+High-MAG (400 μg/kg/day) groups. The day at birth was termed postnatal day (PND). Litters belonging to danazol-induced PP groups were given a single subcutaneous injection of 300 μg danazol (Sigma-Aldrich) dissolved in 30 μL vehicle composed of propylene glycerol and ethanol (1:1)^[7]. MAG was administered using oral gavage since PND 13. Offspring were weaned onto a normal chow diet and water at PND 21. Body weight was measured daily. The rats were examined daily for the vaginal opening, which was considered as a marker of pubertal onset.
(§2) Overnight fasting blood samples for glucose measurement were collected from tail veins two days before sacrifice. Blood samples for LH, estrogen, and other routine laboratory tests were collected from the abdominal aorta when sacrificing. Insulin resistance was then estimated using the triglyceride glucose (TyG) index. […] Also, the fecal samples were collected during these days to analyze gut microbiome, short chain fatty acids (SCFA), and reserve material for fecal microbiota transplantation (FMT) in Experiment 3.
On the days of the vaginal opening in the model group, all animals were exsanguinated with normal saline following anesthesia. After perfusion, the hypothalamus was retrieved. Half of them were fixed in the 10% neutral-buffered formalin for IHC experiments, while the remaining half was embedded in RNAprotect reagent for qPCR experiments later. […]
Blood glucose in rodents was measured using the BioSystem glucose GOD/Peroxidase kit. LH levels were measured using the Enzo LH ELISA kit following the manufacturer's instructions. […]
Data were presented as means±standard deviation. […] Day of vaginal opening, day of setup of regular cycle and day of establishment of 3 regular cycles were analyzed using survival analysis and were compared using the log-rank test. […]

For data set [2] the test system is unchanged. Kind of data set: Animal Experiment 2: serum estrogen level on sacrifice day. Format: in vivo.
Excerpt: In this experiment, rats were raised until the model group (danazol) experienced vaginal opening. At that time, all of the rats were then sacrificed to (1) compare the differences between serum estrogen and luteinizing hormone (LH) levels; (2) compare the mRNA expression of GnRHa, k, Lin28a, Lin28b, let7a, let7b, GPR54, netrin-1, UNC5C, and MKRN3 in the hypothalamus using qPCR; and (3) compare the number of GnRH and kisspeptin neurons in the hypothalamus using immunohistochemistry (IHC).
as §2
Blood glucose in rodents was measured using the BioSystem glucose GOD/Peroxidase kit. LH levels were measured using the Enzo LH ELISA kit following the manufacturer's instructions. Samples for estrogen and other routine test were sent to a clinical laboratory.

The test system is the same in data set [3]. Kind of data set: Animal Experiment 1: puberty-related time points (vaginal opening, estrous cycle) in danazol-induced PP rats. Format: in vivo. On the procedure:
A total of 129 female neonate Sprague-Dawley rats were housed in a humidity (67±1.5%) and temperature (24±2° C.)-controlled housing room of the Taipei Medical University's Laboratory Animal Center with a 12-hour light/dark cycle. They had free access to food and water.
as §1
(§3) MAG was prepared freshly at the beginning of the experiment daily by mixing MAG powder with sterilized water. The volume fed each day was calculated based on the MAG solubility (20 mg/mL), maximum volume tolerated (10 mL/kg/time), intended dose (either 100, 200, or 400 μg/kg/day), and the rat's body weight on that day. Those who were not in the MAG-fed groups were fed with the same volume of sterilized water. MAG doses were chosen based on existing guidelines for safe dosage in humans and previous work in animals. In more detail, the doses were about 5 to 20 times lower than the no-observed-adverse-effect-levels (NOAELs)^[8]. They reflect the normal physiological intake of this sweetener.
In this experiment, rats were fed with MAG daily until the end of experiment to maintain the long-term effect of drug tested. Vaginal smear was performed daily until they established three consecutive regular 4- or 5-day-cycles. The day of vaginal opening was the primary outcome. Moreover, the day of the setup of the regular cycle and the day of the establishment of 3 regular cycles were observed as secondary outcomes. The first day of diestrus or metestrus of the first cycle in the 3 consecutive regular estrous cycles was determined as the day of the setup of the regular cycle^[7]. The last day of diestrus of the last cycle in the 3 consecutive regular estrous cycles was determined as the day of establishment of 3 regular cycles^[9].
(§4) Data were presented as means±standard deviation. Statistical analysis was performed on raw data using one-way analysis of variance (ANOVA). Comparisons among groups were made using the post hoc Tukey-HSD test. Day of vaginal opening, day of setup of regular cycle and day of establishment of 3 regular cycles were analyzed using survival analysis and were compared using the log-rank test. A two-tailed p-value<0.05 was considered significant.

The nature of data set [4]: MAG solubility in sterilized water. Type of data set: physicochemical. Particulars: MAG powder mixed with sterilized water. On the procedure:
as §3

For data set [5], the system named is mice (recipient) raised in a specific-pathogen free environment. Kind of data set: Animal Experiment 3: fecal microbiota transplantation (FMT), day of vaginal opening. Type of data set: in vivo. Particulars: Danazol group, n = 6. Here is the method:
In this experiment, the fecal material collected in Experiment 2 (from donor) was transplanted to mice (recipient) raised in a specific-pathogen free environment. Pathogen free mice model was established by feeding 25 mL of cocktail antibiotics, which contain 50 mg of ampicillin, 50 mg of neomycin, 50 mg of metronidazole, and 25 mg of vancomycin.
as §4

Another data set concerns precocious puberty. Kind of data set: Taiwan Puberty Longitudinal Study cohort: sweetener intake and risk of precocious puberty (logistic regression). Type of data set: in vivo, human. Conditions: for OR of precocious puberty: adjusted model. On the procedure:
The Taiwan Puberty Longitudinal Study (TPLS) was a multicenter project involving several hospitals in Taiwan. A total of more than 2,000 female adolescents aged from 6 to 16 years and male adolescents aged from 9 to 17 years had been recruited from pediatric endocrine clinics since 2018. Anthropometric measurements, pubertal stages exams, and interviews about physical activity and sleep quality were conducted quarterly. A comprehensive evaluation, including 24-hour food recall, fasting blood test, and parental interviews about their children's physical activity and sleep quality, was performed annually. Participants were followed up until reaching the late pubertal stages. Thorough market search, a comprehensive and semiquantitative food frequency questionnaire (FFQ), was created for glycyrrhizin intake evaluation in advance. A total of 39 glycyrrhizin-containing food and beverage products were listed in this non-nutritive sweetener food frequency questionnaire ([…])^[1]. The questionnaire was used to screen the level of glycyrrhizin consumption. The interval scale for frequency was measured as never or a number of times per day or per week. Glycyrrhizin consumption was described as the proportion relative to acceptable daily intake (ADI) set by the Joint FAO/WHO Expert Committee on Food Additives[2]. The glycyrrhizin exposure dose in % ADI was finally categorized as tertiles, ranging from T1 (0 to 0.0006), T2 (0.0006 to 0.002) to T3 (>0.002). […] Most of the added sugar came from sugar-sweetened beverages (SSB). The added-sugar exposure dose in % ADI was also categorized as tertiles, ranging from T1 (0 to 0.0013), T2 (0.0013 to 0.0044) to T3 (>0.0044). Precocious puberty (PP) was diagnosed in the presence of the following criteria: secondary sexual characteristics happen before the age of 8 years old, bone age advance greater than 2 years above chronological age, and peak luteinizing hormone (LH)≥5 after the gonadotropin-releasing hormone (GnRH) stimulation test^[3]. Body mass index (BMI) was calculated as weight in kilograms divided by height in meters squared and was then transformed into z-scores (zBMI) based on age- and sex-related reference charts for Taiwanese children^[4]. Participants were asked for their habitual activities, and the amount of time they spend for specific physical activities. The intensity of each activity was described as metabolic equivalent of task (MET)^[5]. Daily metabolic equivalent value (METD) was calculated by summarizing mean of the standard MET of each activity multiplied by the average daily duration. The sleep quality scores, ranging from 0 to 21, were assessed by the Pittsburgh Sleep Quality Index (PSQI) through a self-reported questionnaire^[6]. The total energy intake daily in kcal was estimated by the summary of energy intake from three major macronutrients, including carbohydrates, fat, and proteins. Parental education was assessed by interviews and classified as “senior high school and below,” “college,” or “graduate school and higher.” Odds ratios (ORs) for precocious puberty in participants consumed different doses of glycyrrhizin and added sugar were calculated from generalized linear models with logistic regression using glm( ) function. Models were adjusted for gender, age, zBMI, exercise time, sleep quality, total energy intake, and parental education. Atwo-tailed p-value of <0.05 was considered statistically significant. All analyses were performed using R software (version 4.0.2; RStudio; R Foundation for Statistical Computing, Inc., Boston, MA, USA).

Where [6] appears, read: Danazol + High-MAG (400 μg/kg/day, oral gavage), n = 15.
[7] abbreviates: Danazol + Low-MAG (100 μg/kg/day, oral gavage), n = 8.
The mark [8] stands for this setting: Danazol + Med-MAG (200 μg/kg/day, oral gavage), n = 8.
Setting [9] is: MAG group (no danazol), oral gavage since PND 13, n = 5.
[10] abbreviates: Danazol group (single s.c. 300 μg danazol), n = 6.

Consider `CC1(C)[C@@H](O[C@H]2O[C@H](C(=O)O)[C@@H](O)[C@H](O)[C@H]2O[C@@H]2O[C@H](C(=O)O)[C@@H](O)[C@H](O)[C@H]2O)CC[C@]2(C)[C@H]3C(=O)C=C4[C@@H]5C[C@@](C)(C(=O)O)CC[C@]5(C)CC[C@@]4(C)[C@]3(C)CC[C@@H]12.N` [MAG, monoammonium glycyrrhizinate], for which the “Liver enzyme, renal function, albumin, electrolyte panel and lipid profiles” value in data set [1] (all p>0.05) is given as “no safety concerns”. Besides, the “Body weight during puberty” value in data set [1] (among groups, p=0.448) was “no difference”. In addition, the “Insulin resistance (TyG index) at the end of the experiment” value in data set [1] (between groups, High-MAG vs Medium-MAG p=0.048) is “did not differ between groups, with the exception of a higher value in High-MAG than that of Medium-MAG”. In addition, the Serum estrogen level entry in data set [2] (High-MAG group (danazol + 400 μg/kg/day)) is “trend towards higher values”. Besides, the “Day of establishment of 3 regular cycles” value worked out at 41.47 ± 2.85 in data set [3] (setting [6]), 44.13 ± 3.68 in data set [3] (setting [7]), 45.88 ± 4.19 in data set [3] (setting [8]) and 49.00 ± 2.55 in data set [3] (setting [9]). Besides, the “Day of setup of regular cycle” value turned out to be 28.93 ± 3.62 in data set [3] (setting [6]), 31.50 ± 3.63 in data set [3] (setting [7]), 33.38 ± 4.07 in data set [3] (setting [8]) and 37.40 ± 3.44 in data set [3] (setting [9]). In addition, the “Day of vaginal opening” value in data set [3] (setting [6]) was found to be 24.00 ± 2.45; in data set [3] (setting [7]), 25.13 ± 3.60; in data set [3] (setting [8]), 27.50 ± 5.01; in data set [3] (setting [9]), 32.60 ± 2.07. Besides, the “Protection against PP over the whole estrous cycle” value in data set [3] (danazol-induced PP rats, most obvious effects with Low- and Medium-MAG groups) is “protected rats against PP following a dose-dependent manner”. In data set [4], this molecule displayed an MAG solubility of 20 mg/mL.
Consider `C#C[C@]1(O)CC[C@H]2[C@@H]3CCC4=Cc5oncc5C[C@]4(C)[C@H]3CC[C@@]21C` [Danazol, danazol, reference compound], for which, in data set [5], the “Day of vaginal opening (PND)” value is on record as 24.33 PND. Also, the Serum estrogen level result in data set [2] (Danazol group) was “trend towards higher values”. Besides, in data set [3] (setting [10]), the “Day of establishment of 3 regular cycles” value is reported as 38.17 ± 1.17, the “Day of setup of regular cycle” value came out at 27.67 ± 1.51 and the “Day of vaginal opening” value was 23.00 ± 0.00.
For the molecule `CC1(C)[C@@H](O[C@H]2O[C@H](C(=O)O)[C@@H](O)[C@H](O)[C@H]2O[C@@H]2O[C@H](C(=O)O)[C@@H](O)[C@H](O)[C@H]2O)CC[C@]2(C)[C@H]3C(=O)C=C4[C@@H]5C[C@@](C)(C(=O)O)CC[C@]5(C)CC[C@@]4(C)[C@]3(C)CC[C@@H]12` [Glycyrrhizin, glycyrrhizin], the “OR of precocious puberty” value in the data set with precocious puberty (Female, exposure tertile T1 vs no intake) was determined as 0.479; with precocious puberty (Female, exposure tertile T2 vs no intake), 0.826; in the data set on precocious puberty (Female, exposure tertile T3 vs no intake), 0.969; in the data set on precocious puberty (Male, exposure tertile T1 vs no intake), 1.384; in the data set on precocious puberty (Male, exposure tertile T2 vs no intake), 0.422; in the data set with precocious puberty (Male, exposure tertile T3 vs no intake), 0.656. Also, the “OR of precocious puberty” value with precocious puberty (Total, exposure tertile T1 (% ADI: glycyrrhizin 0 to 0.0006, added sugar 0 to 0.0013) vs no intake) is given as 0.607; in the data set on precocious puberty (Total, exposure tertile T2 (% ADI: glycyrrhizin 0.0006 to 0.002, added sugar 0.0013 to 0.0044) vs no intake) it was 0.687; with precocious puberty (Total, exposure tertile T3 (% ADI: glycyrrhizin >0.002, added sugar >0.0044) vs no intake), 0.857. Besides, the “Risk of PP after full adjustment” value with precocious puberty (human cohort, consumption vs no intake) is reported as “reduce the risk of PP”.
